According to patent publication US11667632B2, “2-(1H-indazol-3-yl)-3H-imidazo[4,5-C]pyridines and their anti-inflammatory uses thereof” (BioSplice Therapeutics, Inc., priority 2015, dated 2023):

Experiments:
IL-6 = assay: Inhibition of IL-6 in LPS-stimulated primary PBMCs (ELISA, MSD U-plex); format: cell-based; details: human PBMCs, LPS (500 ng/mL), Compound 10 (150 nM), 24 hrs; MSD platform; FIG. 15
Procedure: (§1) Primary peripheral blood mononuclear cells (PBMCs) freshly isolated from healthy human donors were obtained from AllCells Inc. and utilized for assays immediately. Compound 10 was dissolved in DMSO as a 10 mM stock and used to prepare compound source plates. A serial dilution (8-point dose-response) and compound transfer was performed using the ECHO 550 (Labcyte, Sunnyvale, Calif.) into 96-well clear bottom assay plates (Greiner Bio-One) with appropriate DMSO backfill for a final DMSO concentration of 0.05%. PBMCs were plated at 2×10e^5 cells/well in Roswell Park Memorial Institute (RPMI) 1640 Medium (Catalog #21870-100, Buffalo, N.Y.) with 1% L-glutamine, 1% HEPES, 1% Sodium Pyruvate, 2% Sodium Bicarbonate supplemented with 100 units/mL penicillin, 50 μg/mL streptomycin and 1% fetal bovine serum (Catalog #16140089, Life Technologies, Carlsbad, Calif.). […]
(§2) Supernatants were diluted appropriately for ELISA. […] Following several washes to remove unbound avidin-HRP, the TMB substrate was added and the plates were read on the Cytation 3 plate reader (Biotek Inc., Winooski, Vt.) at an absorbance of 450 nm with correction at 570 nm. […] Inhibition profile and EC50 was calculated using Prism 5 (GraphPad Software Inc, La Jolla, Calif., USA). […] Levels of cytokines were calculated using software form Meso Scale Discovery.

TNF-α = assay: Inhibition of TNF-α in LPS-stimulated primary PBMCs (ELISA, MSD U-plex); format: cell-based; details: human PBMCs, LPS (500 ng/mL), Compound 10 (150 nM), 24 hrs; MSD platform; FIG. 15
Procedure: as §1, §2

[1] = Persistence and half-life of radiolabeled Compound 10 in rat knee joints; format: in vivo; details: SD rats
Source text: […] These same animals were used for the QWBA experiments (above).
On Day 180, only about ˜6.6% of administered dose was detected.

IL-8 = assay: Inhibition of IL-8 in LPS-stimulated primary PBMCs (MSD U-plex); format: cell-based; details: human PBMCs, LPS (500 ng/mL), Compound 10 (150 nM), 24 hrs; MSD platform; FIG. 15
Procedure: as §1, §2

Interleukin 1β (IL1β) = assay: Inhibition of inflammatory cytokine expression in IL-1β-stimulated synovial fibroblasts, qRT-PCR; format: cell-based; details: human synovial fibroblasts, IL-1β (100 ng/mL), Compound 10 at 100 nM and 30 nM, 24 hrs; FIG. 14B
Procedure: Synovial fibroblasts were plated in 6-well plates at 0.5 million cells per well in Leibovitz's L-15 Medium with 1% FBS. Compound 10 dissolved in DMSO was added to the wells at different concentrations. […] Cells were harvested by trypsinization, pelleted, washed with PBS and Total RNA was isolated using RNeasy Mini Kit (Qiagen). cDNA was synthesized using the QuantiTect Reverse Transcription kit (Qiagen). qRT-PCR was performed with QuantiTect SYBR Green PCR Kit (Qiagen) and gene-specific primers, using CFX384 (Biorad). Transcripts were quantitated by comparative Ct method and normalized to endogenous controls, β-actin and GAPDH.

IFN-γ = assay: Inhibition of IFN-γ in LPS-stimulated primary PBMCs (MSD U-plex); format: cell-based; details: human PBMCs, LPS (500 ng/mL), Compound 10 (150 nM), 24 hrs; MSD platform; FIG. 15
Procedure: as §1, §2

[2] = time points Days 14-90 only, excluding Day 180

CC(C)CC(=O)Nc1cncc(-c2ccc3[nH]nc(-c4nc5c(-c6cccc(F)c6)cncc5[nH]4)c3c2)c1 [Compound 10]
Inhibition of IL-6 (IL-6): Inhibition
Inhibition of TNF-α (TNF-α): Inhibition
mean % of administered dose per knee ([1]; 1 μg/knee IA, Day 14): 64%
mean % of administered dose per knee ([1]; 1 μg/knee IA, Day 30): 54%
mean % of administered dose per knee ([1]; 1 μg/knee IA, Day 60): 42%
mean % of administered dose per knee ([1]; 1 μg/knee IA, Day 90): 38%
% of administered dose detected in knee joint ([1]; 1 μg/knee IA, Day 180): ~6.6%
detection in the knee joint space (radiographic images) ([1]; Day 180): still detectable
elimination rate constant, Ke ([1]; all time points, Days 14-180): 0.01342
half-life (T1/2) in the knee joint ([1]; all time points, Days 14-180): 51.64 days
elimination rate constant, Ke [1, 2]: 0.00687
half-life (T1/2) in the knee joint [1, 2]: 100.9 days
administered radioactivity recovered in each knee joint ([1]; two IA injections at 1 μg/knee, 1 h post-IA injection up to 168 h): 60-85%
Inhibition of IL-8 (IL-8): Inhibition
inhibition of inflammatory cytokine secretion (qRT-PCR) (Interleukin 1β (IL1β)): inhibition
Inhibition of IFN-γ (IFN-γ): Inhibition
